Laboratory results from US20070134315A1, “Orally administrable extended release pellet and tablet formulations of a highly water soluble compound” (priority 2005, published 2007).
In brackets after ≈: the same amount, converted by molar mass.

How the values were obtained:
[1] = Water solubility of isovaleramide and dose number; type: physicochemical
Method: The water solubility of the drug substance as used herein, is defined according to its dose number, Do, for oral drug delivery. The dose number for a drug is defined by the ratio of its dose concentration to its saturation solubility in a reference fluid according to the following calculation: [formula]
where: Mo is the dose of the drug (mg), Vo is the reference fluid volume (mL) and Cs is the saturation solubility of the drug in the reference fluid (mg/mL) at 37° C. Representative reference fluids for oral drug delivery are aqueous based solutions within the relevant physiologic pH range of the gastrointestinal tract (i.e., pH 1-pH 7.5). A representative reference fluid volume for oral drug delivery is 250 mL. A drug substance is considered to be highly soluble if at its highest dose the Do value is ≦1. […] The solubility of isovaleramide in water at 37° C. is approximately 70 mg/mL. The upper range of a single daily dose of isovaleramide could be 1200 mg to 2400 mg. The Do number range for isovaleramide, calculated using a reference volume of 250 mL and the single daily dose range of 1200 mg to 2400 mg, is 0.07 to 0.14.

[2] = Isothermal thermogravimetric analysis (TGA) of sublimation; type: physicochemical
Method: The temperature dependent physical instability of the drug substance was studied in detail in order to determine the appropriate pharmaceutical formulation processes and temperature ranges suitable for the preparation of the pharmaceutical compositions of isovaleramide. An automated thermogravimetric analysis (TGA) method was used to determine the relative rates of isovaleramide sublimation. Isothermal TGA was conducted at 30° C., 35° C., 40° C., 45° C., 50° C. and 60° C. for 24 hours. Samples were prepared by first taring a platinum TGA pan on the TGA system. A sample amount of isovaleramide of 10 mg-15 mg was then added to the pan and distributed evenly. The sample pan was then loaded onto the TGA autosampler for subsequent analysis. Samples were initially equilibrated at their respective isothermal temperature and then monitored for 24 hours. Data sampling was accomplished at a rate of 600 seconds/point. Sample replicates ranged from 1 to 3. TGA instrument and operating conditions were as follows: […]

pH dependence of solubility ([1]; physiologic pH range of the gastrointestinal tract): pH independent solubility
solubility ([1]; water, 37° C.): ~70 mg/mL (≈ 692 mM)
Reduction in Weight % ([2]; isothermal 30° C., 1 hr): 0.05%
Reduction in Weight % ([2]; isothermal 30° C., 3 hr): 0.12%
Reduction in Weight % ([2]; isothermal 30° C., 6 hr): 0.25%
Reduction in Weight % ([2]; isothermal 30° C., 9 hr): 0.41%
Reduction in Weight % ([2]; isothermal 30° C., 12 hr): 0.62%
Reduction in Weight % ([2]; isothermal 30° C., 15 hr): 0.82%
Reduction in Weight % ([2]; isothermal 30° C., 18 hr): 1.01%
Reduction in Weight % ([2]; isothermal 30° C., 21 hr): 1.20%
Reduction in Weight % ([2]; isothermal 30° C., 24 hr): 1.32%
Reduction in Weight % ([2]; isothermal 35° C., 1 hr, mean of three): 0.10%
Reduction in Weight % ([2]; isothermal 35° C., 3 hr, mean of three): 0.28%
Reduction in Weight % ([2]; isothermal 35° C., 6 hr, mean of three): 0.55%
Reduction in Weight % ([2]; isothermal 35° C., 9 hr, mean of three): 0.83%
Reduction in Weight % ([2]; isothermal 35° C., 12 hr, mean of three): 1.12%
Reduction in Weight % ([2]; isothermal 35° C., 15 hr, mean of three): 1.41%
Reduction in Weight % ([2]; isothermal 35° C., 18 hr, mean of three): 1.67%
Reduction in Weight % ([2]; isothermal 35° C., 21 hr, mean of three): 1.92%
Reduction in Weight % ([2]; isothermal 35° C., 24 hr, mean of three): 2.17%
Reduction in Weight % ([2]; isothermal 40° C., 1 hr, mean of three): 0.14%
Reduction in Weight % ([2]; isothermal 40° C., 3 hr, mean of three): 0.53%
Reduction in Weight % ([2]; isothermal 40° C., 6 hr, mean of three): 1.10%
Reduction in Weight % ([2]; isothermal 40° C., 9 hr, mean of three): 1.65%
Reduction in Weight % ([2]; isothermal 40° C., 12 hr, mean of three): 2.27%
Reduction in Weight % ([2]; isothermal 40° C., 15 hr, mean of three): 2.83%
Reduction in Weight % ([2]; isothermal 40° C., 18 hr, mean of three): 3.43%
Reduction in Weight % ([2]; isothermal 40° C., 21 hr, mean of three): 4.02%
Reduction in Weight % ([2]; isothermal 40° C., 24 hr, mean of three): 4.58%
Reduction in Weight % ([2]; isothermal 45° C., 1 hr): 0.27%
Reduction in Weight % ([2]; isothermal 45° C., 3 hr): 0.91%
Reduction in Weight % ([2]; isothermal 45° C., 6 hr): 1.97%
Reduction in Weight % ([2]; isothermal 45° C., 9 hr): 2.95%
Reduction in Weight % ([2]; isothermal 45° C., 12 hr): 3.95%
Reduction in Weight % ([2]; isothermal 45° C., 15 hr): 4.98%
Reduction in Weight % ([2]; isothermal 45° C., 18 hr): 6.02%
Reduction in Weight % ([2]; isothermal 45° C., 21 hr): 7.05%
Reduction in Weight % ([2]; isothermal 45° C., 24 hr): 8.01%
Reduction in Weight % ([2]; isothermal 50° C., 1 hr): 0.54%
Reduction in Weight % ([2]; isothermal 50° C., 3 hr): 1.65%
Reduction in Weight % ([2]; isothermal 50° C., 6 hr): 3.35%
Reduction in Weight % ([2]; isothermal 50° C., 9 hr): 5.05%
Reduction in Weight % ([2]; isothermal 50° C., 12 hr): 6.68%
Reduction in Weight % ([2]; isothermal 50° C., 15 hr): 8.35%
Reduction in Weight % ([2]; isothermal 50° C., 18 hr): 10.04%
Reduction in Weight % ([2]; isothermal 50° C., 21 hr): 11.77%
Reduction in Weight % ([2]; isothermal 50° C., 24 hr): 13.43%
Reduction in Weight % ([2]; isothermal 60° C., 1 hr, mean of three): 1.98%
Reduction in Weight % ([2]; isothermal 60° C., 3 hr, mean of three): 5.96%
Reduction in Weight % ([2]; isothermal 60° C., 6 hr, mean of three): 11.90%
Reduction in Weight % ([2]; isothermal 60° C., 9 hr, mean of three): 17.79%
Reduction in Weight % ([2]; isothermal 60° C., 12 hr, mean of three): 23.61%
Reduction in Weight % ([2]; isothermal 60° C., 15 hr, mean of three): 29.37%
Reduction in Weight % ([2]; isothermal 60° C., 18 hr, mean of three): 35.03%
Reduction in Weight % ([2]; isothermal 60° C., 21 hr, mean of three): 40.53%
Reduction in Weight % ([2]; isothermal 60° C., 24 hr, mean of three): 44.74%
SMILES: CC(C)CC(N)=O [Isovaleramide, isovaleramide]
